Common to all, as to test: inhibition of tumour cell growth, NCI panel, 48 h
In experiment [1] the test system is SNB-19 CNS.
For experiment [2], the system named is HS 578T breast.
The subject of experiment [3] is UACC-62 melanoma.
The test system of experiment [4] is HCT-116 colon.
For experiment [5], the system named is HL-60(TB) leukemia.
Experiment [6] has as its system NCI-H522 lung.
For experiment [7], the system named is MDA-MB-231 breast.
In experiment [8] the test system is OVCAR-3 ovarian.
Experiment [9] has as its system LOX IMVI melanoma.
For experiment [10], the system named is NCI-H23 lung.

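Values below derive from 48-hour exposures of cells grown in 96-well plates, with endpoints linearly interpolated between the two concentrations bracketing the appropriate inhibition level. GI50 marks 50% less growth. TGI: concentration producing complete growth inhibition.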

Consider 12 molecules from PubChem BioAssay (NCI).

`CC(=S)N=Cc1c(O)cc(C)oc1=O`: the TGI in [1], in experiment [2], in [3], in experiment [4], in experiment [5] and in experiment [6] was > 100 µM throughout. Also, the TGI in experiment [7], in experiment [8], in experiment [9] and in experiment [10] was > 100 µM each time.

As for `CC1(C(=O)O)CCCC1C(=O)O` (stereo not given), the TGI in [1], in [2], in experiment [3], in [4], in experiment [5] and in experiment [6] was > 100 µM each time. The TGI in [7], in experiment [8], in [9] and in [10] was > 100 µM throughout.

Regarding `N#Cc1c(-c2ccc(F)cc2)nc(N/N=C/c2c[nH]c3ccccc23)nc1N1CCOCC1`, the GI50 is 21 µM in [1]; 3.62 µM in experiment [2]; 11.4 µM in experiment [3]; 2.17 µM in experiment [4]; 0.563 µM in experiment [5]; 2.59 µM in experiment [6]. In addition, the GI50 was 5.16 µM in experiment [7], 11.5 µM in [8], 3.33 µM in experiment [9] and 21.2 µM in experiment [10]. Also, the TGI in [1] is > 100 µM; in experiment [2] it was 32.5 µM; in [3] it was 27.4 µM; in experiment [4] it was 17.9 µM; in [5], 7.57 µM; in experiment [6] it was 7.15 µM. For the same molecule, the TGI is 56.4 µM in experiment [7], 35 µM in experiment [8], 11.2 µM in experiment [9] and 92.7 µM in [10].

As to `CCC(C)C(=O)OC1CC2(C)C(c3ccoc3)OC(=O)CC23OC2(C)OC34C(OC(=O)C(C)C)C3(O)C(OC(=O)C5(C)OC5C)C5(C)CC3(O)C(C)(C5CC(=O)OC)C14O2` (stereo not given), the TGI in experiment [1] was > 100 µM; in experiment [2], > 100 µM; in [3], > 100 µM; in experiment [4], > 100 µM; in [5], 38.9 µM; in experiment [6] it was > 100 µM. For the same molecule, the TGI in experiment [7], in experiment [9] and in experiment [10] was > 100 µM in each case.

On to `O=C(Cc1ccc([N+](=O)[O-])cc1)OCC#CCOC(=O)Cc1ccc([N+](=O)[O-])cc1`, for which the TGI in experiment [1], in experiment [2], in experiment [3], in experiment [5], in [6] and in experiment [7] was > 10 µM each time. Further, the TGI in [8], in experiment [9] and in experiment [10] was > 10 µM each time.

As to `c1ccc(/C(=N/Nc2ccccn2)c2ncccn2)cc1`, the TGI is > 100 µM in experiment [1]; > 44.9 µM in experiment [2]; 12.2 µM in experiment [3]; > 100 µM in [4]; > 100 µM in [5]; 0.679 µM in experiment [6]. Moreover, the TGI was > 100 µM in [7], > 44.3 µM in [8] and > 37.6 µM in experiment [10].

For `COc1ccc2cc(NC(=O)N/N=C\c3ccc(Cl)cc3)ccc2c1`, the TGI was > 100 µM in experiment [1]; 68.8 µM in experiment [2]; > 100 µM in [3]; > 100 µM in experiment [4]; > 100 µM in experiment [5]; > 100 µM in experiment [6]. Besides, the TGI in experiment [7], in experiment [8], in experiment [9] and in [10] was > 100 µM in each case.

`CN(C)S(=O)(=O)Nc1nnc(S(N)(=O)=O)s1`: the TGI in experiment [1], in experiment [2], in experiment [3], in experiment [4], in experiment [5] and in [6] was > 100 µM each time. In addition, the TGI in experiment [7], in experiment [8] and in experiment [10] was > 100 µM throughout.

On to `Cc1c2ncccc2cc2oc3ccccc3c(=O)c12`, for which the TGI in experiment [2], in experiment [3], in [4], in experiment [5], in [6] and in experiment [7] was > 100 µM throughout. In addition, the TGI in experiment [8], in experiment [9] and in [10] was > 100 µM throughout.

As to `COc1cc(I)c2c3c1OC1C34CCN(C)C(C2)C4=CC(I)C1(OC)OC` (stereo not given), the TGI in experiment [1] is 71.9 µM; in experiment [2], > 100 µM; in [3] it was 42 µM; in [4] it was 60.6 µM; in [5], 47.3 µM; in experiment [6], 44.2 µM. The TGI in experiment [7] was determined as 46.3 µM; in experiment [8], 59 µM; in experiment [9], 42.3 µM; in experiment [10], 54.7 µM.

For `Brc1cccc(N=NN2CCCC2)c1`, the TGI in [1], in experiment [2], in experiment [3], in experiment [4], in experiment [5] and in [6] was > 100 µM in each case. For the same molecule, the TGI in experiment [7], in [8], in [9] and in experiment [10] was > 100 µM throughout.

On to `C=c1c(OC)c(OC)c(O)c2c1=c1cc([N+](=O)[O-])cc(OC)c1=N2`, for which the TGI in experiment [1], in experiment [2], in [3], in [4], in [5] and in [6] was > 100 µM in each case. The TGI in experiment [7], in [8], in experiment [9] and in experiment [10] was > 100 µM each time.
